In PMC6548335 (ACS infectious diseases, 2019):
“Also recorded” adds a separate entry of the source.

How the values were obtained:
[1] = Hepatic microsomal stability; type: in vitro ADME; settings: mouse, liver microsomes, pH 7.4
DENV2 NGC = experiment: microbe, parasite or virus in culture; type: cell-based, dengue virus 2 (BHK-21 cells); settings: Dengue virus, DENV2, BHK-21, read-out: IC90 (μM) [DENV2 NGC)
[2] = system: malate dehydrogenase (MDH); experiment: Malate dehydrogenase; type: biochemical; settings: presence and absence of Triton X-100
BHK-21 cells = experiment: Cytotoxicity assay; type: cell-based, baby hamster; settings: for CC5: 50% loss of BHK-21 cell viability; for CC50 relative to antiviral IC90: BHK-21 CC50 vs DENV2 IC90
[3] = target: soluble, prefusion DENV2 envelope protein (sE2) (Dengue virus type 2, UniProt P14340); experiment: Biolayer interferometry binding to sE2; design: species or system dengue virus 2
Plasma-protein binding = type: in vitro ADME
[4] = system: E-mediated membrane fusion of DENV2, strain NGC; settings: 0, 10, 50 μM compound, pH 5.3, Western blot
[5] = Pharmacokinetic study in mice; settings: female, C57BL/6, mouse, intraperitoneal, 20 mg/kg
DENV2 S221 [6] = experiment: Multi-cycle infection, DENV2 S221; settings: 5 μM, MOI 0.01, supernatants at 48 and 72 hours post-infection
DENV2 S221 [7] = experiment: Viral infectivity assay, mouse-adapted DENV2 S221; settings: Dengue virus, DENV2, BHK-21, read-out: antiviral IC90, DENV2 S221

CN1CCN(c2ccc(N/N=C(\C#N)C(=O)c3cc4ccccc4o3)cc2C(F)(F)F)CC1 [JBJ-01-162-01, (E)-2-(benzofuran-2-yl)-N-(4-(4-methylpiperazin-1-yl)-3-(trifluoromethyl)phenyl)-2-oxoacetohydrazonoyl cyanide]
half-life at 1 μM [1]: 35.1 min

CN1CCN(c2cc(N/N=C(\C#N)C(=O)c3cc4ccccc4o3)cc(C(F)(F)F)c2)CC1 [JBJ-01-162-02, (E)-2-(benzofuran-2-yl)-N-(3-(4-methylpiperazin-1-yl)-5-(trifluoromethyl)phenyl)-2-oxoacetohydrazonoyl cyanide]
IC90 (DENV2 NGC): 9 ± 2.8 µM | detergent-sensitive (non-specific) inhibition of MDH [2]: detergent-sensitive inhibition of malate dehydrogenase comparable to that of 3-110-22 | half-life at 1 μM [1]: 73 min | CC5 (BHK-21 cells): 24.5 ± 7.2 µM

N#C/C(=N\Nc1ccc(N2CCOCC2)c(C(F)(F)F)c1)C(=O)c1cc2ccccc2o1 [JBJ-01-162-03, (E)-2-(benzofuran-2-yl)-N-(4-morpholino-3-(trifluoromethyl)phenyl)-2-oxoacetohydrazonoyl cyanide]
IC90 (DENV2 NGC): 1.6 ± 0.7 µM | detergent-sensitive (non-specific) inhibition of MDH [2]: detergent-sensitive inhibition of malate dehydrogenase comparable to that of 3-110-22 | half-life at 1 μM [1]: > 120 min | CC5 (BHK-21 cells): 32.5 ± 2.2 µM | CC50 relative to antiviral IC90 (BHK-21 cells): ≥ 20 fold

Cc1cn(-c2cc(N/N=C(\C#N)C(=O)c3cc4ccccc4o3)cc(C(F)(F)F)c2)cn1 [JBJ-01-162-04, (E)-2-(benzofuran-2-yl)-N-(3-(4-methyl-1H-imidazol-1-yl)-5-(trifluoromethyl)phenyl)-2-oxoacetohydrazonoyl cyanide]
IC90 (DENV2 NGC): 1.5 ± 0.4 µM | detergent-sensitive (non-specific) inhibition of MDH [2]: lacks this non-specific activity; also recorded: Slight inhibition of MDH | half-life at 1 μM [1]: 64.8 min | CC50 relative to antiviral IC90 (BHK-21 cells): ≥ 20 fold | Kd [3]: 1400 ± 500 nM | fraction unbound (Plasma-protein binding): < 0.001 | inhibition of E-mediated fusion (protection of core from trypsin digestion), DENV2 [4]: inhibits E-mediated fusion of DENV2 in a concentration-dependent manner; also recorded: inhibits viral fusion in the liposome-based assay in a concentration-dependent manner | concentration at 4 h ([5]; liver): 37.2 µM | concentration at 12 h ([5]; liver): 13 µM | concentration at 4 h ([5]; plasma): 75.8 µM | concentration at 12 h ([5]; plasma): 2.9 µM | reduction of viral yield in multi-cycle infection (DENV2 S221 [6]): over 95% | IC90 (DENV2 S221 [7]): 1400 ± 600 nM

CCN1CCN(Cc2ccc(N/N=C(\C#N)C(=O)c3cc4ccccc4o3)cc2C(F)(F)F)CC1 [JBJ-01-162-05, (E)-2-(benzofuran-2-yl)-N-(4-((4-ethylpiperazin-1-yl)methyl)-3-(trifluoromethyl)phenyl)-2-oxoacetohydrazonoyl cyanide]
half-life at 1 μM [1]: 29.9 min

N#C/C(=N\Nc1ccc(F)c(C(F)(F)F)c1)C(=O)c1cc2ccccc2o1 [JBJ-03-019-01, (E)-2-(benzofuran-2-yl)-N-(4-fluoro-3-(trifluoromethyl)phenyl)-2-oxoacetohydrazonoyl cyanide]
half-life at 1 μM [1]: 7.6 min

N#C/C(=N\Nc1cc(F)cc(C(F)(F)F)c1)C(=O)c1cc2ccccc2o1 [JBJ-03-019-02, (E)-2-(benzofuran-2-yl)-N-(3-fluoro-5-(trifluoromethyl)phenyl)-2-oxoacetohydrazonoyl cyanide]
half-life at 1 μM [1]: 8.6 min
